System: 485176-168-R4-J1-PDC complex spheroid growth
Assay: Anticancer human tumor 485176-168-R4-J1-PDC patient-derived pancreatic adenocarcinoma cell line growth inhibition [RAS]
Settings: for IC50: curve of first compound; for viability, T/C: stronger effect = lower value; active = viability on the fitted dose curve at most 10% of control; inactive = the rest
In short: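 Agents were tested in combination matrices in half-log decrements from a top concentration at or near clinical Cmax (10 microM if undetermined). Targets were multi-cell spheroids of tumour lines plus HUVEC and MSC stromal cells.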
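Also: spheroids exposed to compounds for seven days before readout.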
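For viability, T/C in this document: luminescence viability expressed relative to DMSO vehicle wells set as 100%.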

C=CC(=O)N1CCN(c2nc(OCC3CCCN3C)nc3c(F)c(-c4nc(N)cc(C)c4C(F)(F)F)c(Cl)cc23)C(C)C1 (centres undefined) + CCn1c(-c2cc(N3CCN(C)CC3)cnc2C(C)OC)c2c3cc(ccc31)-c1csc(n1)CC(NC(=O)C1CC1C)C(=O)N1CCCC(N1)C(=O)OCC(C)(C)C2
inactive: viability, T/C (second compound 0.000949 µM, first compound 0.00316 µM) 95.4% | viability, T/C (second compound 0.000949 µM, first compound 0.01 µM) 86.6% | viability, T/C (second compound 0.000949 µM, first compound 0.0316 µM) 100% | viability, T/C (second compound 0.000949 µM, first compound 0.1 µM) 109% | viability, T/C (second compound 0.000949 µM, first compound 0.316 µM) 114% | viability, T/C (second compound 0.000949 µM, first compound 1 µM) 99% | viability, T/C (second compound 0.003 µM, first compound 0.00316 µM) 85.3% | viability, T/C (second compound 0.003 µM, first compound 0.01 µM) 89.7% | viability, T/C (second compound 0.003 µM, first compound 0.0316 µM) 87.4% | viability, T/C (second compound 0.003 µM, first compound 0.1 µM) 103% | viability, T/C (second compound 0.003 µM, first compound 0.316 µM) 101% | viability, T/C (second compound 0.003 µM, first compound 1 µM) 97.2% | viability, T/C (second compound 0.00949 µM, first compound 0.00316 µM) 89.3% | viability, T/C (second compound 0.00949 µM, first compound 0.01 µM) 88.5% | viability, T/C (second compound 0.00949 µM, first compound 0.0316 µM) 96.5% | viability, T/C (second compound 0.00949 µM, first compound 0.1 µM) 108% | viability, T/C (second compound 0.00949 µM, first compound 0.316 µM) 91.7% | viability, T/C (second compound 0.00949 µM, first compound 1 µM) 114% | viability, T/C (second compound 0.03 µM, first compound 0.00316 µM) 95.5% | viability, T/C (second compound 0.03 µM, first compound 0.01 µM) 97% | viability, T/C (second compound 0.03 µM, first compound 0.0316 µM) 77.2% | viability, T/C (second compound 0.03 µM, first compound 0.1 µM) 79.7% | viability, T/C (second compound 0.03 µM, first compound 0.316 µM) 87.6% | viability, T/C (second compound 0.03 µM, first compound 1 µM) 87.8% | viability, T/C (second compound 0.0949 µM, first compound 0.00316 µM) 84.4% | viability, T/C (second compound 0.0949 µM, first compound 0.01 µM) 105% | viability, T/C (second compound 0.0949 µM, first compound 0.0316 µM) 80.4% | viability, T/C (second compound 0.0949 µM, first compound 0.1 µM) 80.7% | viability, T/C (second compound 0.0949 µM, first compound 0.316 µM) 76.1% | viability, T/C (second compound 0.0949 µM, first compound 1 µM) 81.6% | viability, T/C (second compound 0.3 µM, first compound 0.00316 µM) 72.9% | viability, T/C (second compound 0.3 µM, first compound 0.01 µM) 72.8% | viability, T/C (second compound 0.3 µM, first compound 0.0316 µM) 82% | viability, T/C (second compound 0.3 µM, first compound 0.1 µM) 76.6% | viability, T/C (second compound 0.3 µM, first compound 0.316 µM) 91.8% | viability, T/C (second compound 0.3 µM, first compound 1 µM) 69.3%
> 1000 nM: IC50 (second compound 0.000949 µM) | IC50 (second compound 0.003 µM) | IC50 (second compound 0.00949 µM) | IC50 (second compound 0.03 µM) | IC50 (second compound 0.0949 µM) | IC50 (second compound 0.3 µM)

CC1(C)CCC(Nc2ncc(C(F)(F)F)c(-c3c[nH]c4c(P(C)(C)=O)c(C#N)ccc34)n2)CN1 (centres undefined) + CCn1c(-c2cc(N3CCN(C)CC3)cnc2C(C)OC)c2c3cc(ccc31)-c1csc(n1)CC(NC(=O)C1CC1C)C(=O)N1CCCC(N1)C(=O)OCC(C)(C)C2
70 nM: IC50 (second compound 0.3 µM)
> 300 nM: IC50 (second compound 0.000949 µM) | IC50 (second compound 0.003 µM) | IC50 (second compound 0.0949 µM)
82.5 nM: IC50 (second compound 0.00949 µM)
121 nM: IC50 (second compound 0.03 µM)
inactive: viability, T/C (second compound 0.000949 µM, first compound 0.000949 µM) 94.9% | viability, T/C (second compound 0.000949 µM, first compound 0.003 µM) 91.1% | viability, T/C (second compound 0.000949 µM, first compound 0.00949 µM) 93% | viability, T/C (second compound 0.000949 µM, first compound 0.03 µM) 59.2% | viability, T/C (second compound 0.000949 µM, first compound 0.0949 µM) 55.1% | viability, T/C (second compound 0.000949 µM, first compound 0.3 µM) 49.3% | viability, T/C (second compound 0.003 µM, first compound 0.000949 µM) 93.5% | viability, T/C (second compound 0.003 µM, first compound 0.003 µM) 101% | viability, T/C (second compound 0.003 µM, first compound 0.00949 µM) 75.3% | viability, T/C (second compound 0.003 µM, first compound 0.03 µM) 54.5% | viability, T/C (second compound 0.003 µM, first compound 0.0949 µM) 52% | viability, T/C (second compound 0.003 µM, first compound 0.3 µM) 54.9% | viability, T/C (second compound 0.00949 µM, first compound 0.000949 µM) 84.9% | viability, T/C (second compound 0.00949 µM, first compound 0.003 µM) 96.3% | viability, T/C (second compound 0.00949 µM, first compound 0.00949 µM) 104% | viability, T/C (second compound 0.00949 µM, first compound 0.03 µM) 55.8% | viability, T/C (second compound 0.00949 µM, first compound 0.0949 µM) 51.5% | viability, T/C (second compound 0.00949 µM, first compound 0.3 µM) 46.9% | viability, T/C (second compound 0.03 µM, first compound 0.000949 µM) 101% | viability, T/C (second compound 0.03 µM, first compound 0.003 µM) 92.8% | viability, T/C (second compound 0.03 µM, first compound 0.00949 µM) 76.5% | viability, T/C (second compound 0.03 µM, first compound 0.03 µM) 64.4% | viability, T/C (second compound 0.03 µM, first compound 0.0949 µM) 49.8% | viability, T/C (second compound 0.03 µM, first compound 0.3 µM) 45.8% | viability, T/C (second compound 0.0949 µM, first compound 0.000949 µM) 87.1% | viability, T/C (second compound 0.0949 µM, first compound 0.003 µM) 76.8% | viability, T/C (second compound 0.0949 µM, first compound 0.00949 µM) 76.2% | viability, T/C (second compound 0.0949 µM, first compound 0.03 µM) 57.4% | viability, T/C (second compound 0.0949 µM, first compound 0.0949 µM) 61.9% | viability, T/C (second compound 0.0949 µM, first compound 0.3 µM) 54.8% | viability, T/C (second compound 0.3 µM, first compound 0.000949 µM) 89.3% | viability, T/C (second compound 0.3 µM, first compound 0.003 µM) 93.4% | viability, T/C (second compound 0.3 µM, first compound 0.00949 µM) 70.5% | viability, T/C (second compound 0.3 µM, first compound 0.03 µM) 57.3% | viability, T/C (second compound 0.3 µM, first compound 0.0949 µM) 47% | viability, T/C (second compound 0.3 µM, first compound 0.3 µM) 47.2%

Reference: PubChem BioAssay AID2060906 (Molecular Pharmacology Branch, DTP, NCI, 2025)
